In patent publication US11026991B2, “Compositions and methods of use thereof to promote muscle growth and function” (Worlds Greatest Ingredients, LP, priority 2018, dated 2021):

What was measured:
[1] = parameters: species or system human; conditions: in vivo
Experimental: Another exemplary study was done on a subject. The subject reported to the laboratory after an eight hour fast. Following and eight hour fast, the subject was given a standardized meal plan for two days prior to testing. The subject had their resting heart rate, blood pressure, body mass, height, and body measured using DEXA. Additionally, a urine sample was taken for baseline assessment of clinical safety, amino acid retention, and hydration status. A venous blood sample (10 mL) was be collected from a forearm vein prior to the subject being administrated, in a double-blind fashion a single dose of either leucine (2-gram dose), dileucine (2-gram dose) or leucine (1 grams)+dileucine (1 grams). Subsequent venous blood samples were to be collected 30, 60, 90, 120 and 240 minutes after ingestion of their assigned composition. After blood samples were taken the subject was given 250 mL of cold water to ingest. A second urine sample was taken at 240 minutes after ingestion of the composition. The methodology is shown schematically in FIG. 12.
All blood samples were processed to allow for determination of amino acid concentrations. […]
Plasma essential amino acids (threonine, methionine, lysine, histidine, valine, tryptophan, leucine, phenylalanine, isoleucine) were analyzed by LC/MS/MS and plasma dileucine was analyzed by GC/MS.

[2] = Case study: plasma amino acids after ingestion of 2 g di-leucine (Ce) or 2 g leucine (C4); conditions: for increase in plasma lysine, times greater than the other condition: Ce over C4
Experimental: The subject came into the laboratory fasted prior to the testing days. […] On Day 1, they were randomized to consume 1 of the 2 conditions. Following, consumption of the fluid mixture (8 oz. water), plasma amino acids were measured at 30, 60, 90, and 120 minutes. A 72-hour washout took place followed by the 2nd condition following the same procedures.
The dosage used in this study was either 2 grams of di-leucine (condition Ce) or 2 grams of leucine (condition C4).

muscle protein synthesis = assay: Muscle protein synthesis from vastus lateralis biopsies (L-[ring-13C6]-phenylalanine incorporation); format: in vivo, human; conditions: 180 minutes post challenge, 2 g, versus subjects receiving leucine
Experimental: Another exemplary study was done to measure muscle protein synthesis. Two subjects came to the laboratory after a seven hour, overnight fast. A baseline blood sample was taken. Then a primed (2.0 μmol·kg−1), continuous infusion (0.05 μmol·kg−1·min−1) of L-[ring-13C6]-phenylalanine and L-[15N]-phenylalanine was started in one catheter.
Isotopes (from Cambridge Isotopes Inc., Andover, Mass.) were dissolved in 0.9% saline, filtered through a 0.2-μm filter, and infused using a calibrated syringe pump (from Harvard Apparatus, Holliston, Mass.). After obtaining steady-state enrichment, the L-[15N]-phenylalanine tracer infusion was stopped at t=0.
Repeated muscle biopsy sampling was done throughout the infusion trial for the determination of muscle protein synthesis (based on L-[ring-13C6]-phenylalanine incorporation) before and after the ingestion of 2 g leucine or 2 g dileucine. Biopsies (˜100 mg wet weight) were obtained from the middle region of the vastus lateralis under anesthetic (Lidocaine HCl 1%) with a 5 mm Bergstrom needle custom-modified for manual suction. A schematic representation of the experimental protocol can be found in FIG. 15.

## CC(C)C[C@H](NC(=O)[C@@H](N)CC(C)C)C(=O)O [Ce, L-Leucyl-L-leucine]
[1]
  plasma dileucine levels: measurable increases
[2]; 30 and 60 mPost
  increases in total EAA concentration relative to baseline (range): 7.2% to 26.9%
[2]; 30 mPost
  increase in total EAA concentration, times greater than Condition C4: 4 ×
  increase in total plasma BCAAs, times greater than Condition C4: 2.9 ×
  increase in plasma lysine, times greater than the other condition: 2.8 ×
[2]; 30 mPost ingestion of 2 g
  Plasma Isoleucine Delta Change Relative to Baseline Values: -11.31 nmol/L
  Plasma Isoleucine Percent Change Relative to Baseline Values: −16.0%
  Plasma Lysine Delta Change Relative to Baseline Values: 39.97 nmol/L
  Plasma Lysine Percent Change Relative to Baseline Values: 29.7%
  Plasma Methionine Delta Change Relative to Baseline Values: 2.32 µM
  Plasma Methionine Percent Change Relative to Baseline Values: 10.1%
  Plasma Phenylalanine Delta Change Relative to Baseline Values: 3.55 nmol/L
  Plasma Phenylalanine Percent Change Relative to Baseline Values: 6.0%
  Plasma Threonine Delta Change Relative to Baseline Values: 7.09 µM
  Plasma Tryptophan Delta Change Relative to Baseline Values: -0.83 nmol/L
  Plasma Tryptophan Percent Change Relative to Baseline Values: −1.3%
  Plasma Valine Delta Change Relative to Baseline Values: -13.31 nmol/L
  Plasma Valine Percent Change Relative to Baseline Values: −3.6%
  Total Plasma BCAA Delta Change Relative to Baseline Values: 213 µM
  Total Plasma BCAA Percent Change Relative to Baseline Values: 35.7%
  Total Plasma EAA Delta Change Relative to Baseline Values: 265.57 nmol/L
  Total Plasma EAA Percent Change Relative to Baseline Values: 26.9%
[2]; 60 mPost ingestion of 2 g
  Plasma Isoleucine Delta Change Relative to Baseline Values: -14.21 nmol/L
  Plasma Isoleucine Percent Change Relative to Baseline Values: −20.1%
  Plasma Lysine Delta Change Relative to Baseline Values: 41.31 nmol/L
  Plasma Lysine Percent Change Relative to Baseline Values: 30.7%
  Plasma Methionine Delta Change Relative to Baseline Values: 1.01 µM
  Plasma Methionine Percent Change Relative to Baseline Values: 4.4%
  Plasma Phenylalanine Delta Change Relative to Baseline Values: 2.02 nmol/L
  Plasma Phenylalanine Percent Change Relative to Baseline Values: 3.4%
  Plasma Threonine Delta Change Relative to Baseline Values: 6.11 µM
  Plasma Tryptophan Delta Change Relative to Baseline Values: -5.10 nmol/L
  Plasma Tryptophan Percent Change Relative to Baseline Values: −7.9%
  Plasma Valine Delta Change Relative to Baseline Values: -52.63 nmol/L
  Plasma Valine Percent Change Relative to Baseline Values: −14.1%
  Total Plasma BCAA Delta Change Relative to Baseline Values: 26 µM
  Total Plasma BCAA Percent Change Relative to Baseline Values: 4.3%
  Total Plasma EAA Delta Change Relative to Baseline Values: 71.33 nmol/L
  Total Plasma EAA Percent Change Relative to Baseline Values: 7.2%
[2]; 60 mPost
  increase in plasma lysine, times greater than the other condition: 5.7 ×
[2]; 90 mPost ingestion of 2 g
  Plasma Isoleucine Delta Change Relative to Baseline Values: -26.67 nmol/L
  Plasma Isoleucine Percent Change Relative to Baseline Values: −37.7%
  Plasma Lysine Delta Change Relative to Baseline Values: -25.31 nmol/L
  Plasma Lysine Percent Change Relative to Baseline Values: −18.8%
  Plasma Methionine Delta Change Relative to Baseline Values: -0.00173 µM
  Plasma Methionine Percent Change Relative to Baseline Values: −7.5%
  Plasma Phenylalanine Delta Change Relative to Baseline Values: -5.98 nmol/L
  Plasma Phenylalanine Percent Change Relative to Baseline Values: −10.1%
  Plasma Threonine Delta Change Relative to Baseline Values: -0.0034 µM
  Plasma Threonine Percent Change Relative to Baseline Values: −3.2%
  Plasma Tryptophan Delta Change Relative to Baseline Values: -6.60 nmol/L
  Plasma Tryptophan Percent Change Relative to Baseline Values: −10.2%
  Plasma Valine Delta Change Relative to Baseline Values: -79.42 nmol/L
  Plasma Valine Percent Change Relative to Baseline Values: −21.3%
  Total Plasma BCAA Delta Change Relative to Baseline Values: -0.07162 µM
  Total Plasma BCAA Percent Change Relative to Baseline Values: −12.0%
  Total Plasma EAA Delta Change Relative to Baseline Values: -114.65 nmol/L
  Total Plasma EAA Percent Change Relative to Baseline Values: −11.6%
[2]; 120 mPost ingestion of 2 g
  Plasma Isoleucine Delta Change Relative to Baseline Values: -24.37 nmol/L
  Plasma Isoleucine Percent Change Relative to Baseline Values: −34.4%
  Plasma Lysine Delta Change Relative to Baseline Values: 25.68 nmol/L
  Plasma Lysine Percent Change Relative to Baseline Values: 19.1%
  Plasma Methionine Delta Change Relative to Baseline Values: -0.00168 µM
  Plasma Methionine Percent Change Relative to Baseline Values: −7.3%
  Plasma Phenylalanine Delta Change Relative to Baseline Values: -1.89 nmol/L
  Plasma Phenylalanine Percent Change Relative to Baseline Values: −3.2%
  Plasma Threonine Delta Change Relative to Baseline Values: -0.00207 µM
  Plasma Threonine Percent Change Relative to Baseline Values: −1.9%
  Plasma Tryptophan Delta Change Relative to Baseline Values: -13.23 nmol/L
  Plasma Tryptophan Percent Change Relative to Baseline Values: −20.5%
  Plasma Valine Delta Change Relative to Baseline Values: -85.53 nmol/L
  Plasma Valine Percent Change Relative to Baseline Values: −22.9%
  Total Plasma BCAA Delta Change Relative to Baseline Values: -0.06614 µM
  Total Plasma BCAA Percent Change Relative to Baseline Values: −11.1%
  Total Plasma EAA Delta Change Relative to Baseline Values: -59.34 nmol/L
  Total Plasma EAA Percent Change Relative to Baseline Values: −6.0%
Muscle protein synthesis
  myofibrillar FSR (muscle protein synthesis): significantly increased
